The values that follow come from US20140155397A1, “EMT SIGNATURES AND PREDICTIVE MARKERS AND METHOD OF USING THE SAME” (Board of Regents, priority 2011, published 2014).

In assay [1] the test system is NSCLC cell lines. The assay is described as follows: Drug sensitivity (growth inhibition, MTS assay) of epithelial versus mesenchymal NSCLC cell lines. It is filed as cell-based. The source says: Average values were used for analysis as described. […] Chou T. C., et al., Quantitative Analysis of Dose-Effect Relationships: The Combined Effects of Multiple Drugs or Enzyme Inhibitors. Adv Enzyme Regul.
The EMT signature was derived in 54 DNA fingerprinted NSCLC cell lines profiled on Affymetrix U133A, B, and Plus2.0 arrays and tested on the Illumina WGv2 and WGv3 platforms and in an independent set of head and neck cancer lines (HNC). E-cadherin and other protein levels were quantified by reverse phase protein array and correlated with the first principal component of the EMT signature. IC50s were determined for NSCLC cell lines by MTS assay. Response to erlotinib was evaluated in patients treated in the BATTLE clinical trial using eight-week disease […] and progression free survival.

Assay [2] addresses T1, AXL (Homo sapiens, UniProt P30530).
T1 sequence (P30530 26-894): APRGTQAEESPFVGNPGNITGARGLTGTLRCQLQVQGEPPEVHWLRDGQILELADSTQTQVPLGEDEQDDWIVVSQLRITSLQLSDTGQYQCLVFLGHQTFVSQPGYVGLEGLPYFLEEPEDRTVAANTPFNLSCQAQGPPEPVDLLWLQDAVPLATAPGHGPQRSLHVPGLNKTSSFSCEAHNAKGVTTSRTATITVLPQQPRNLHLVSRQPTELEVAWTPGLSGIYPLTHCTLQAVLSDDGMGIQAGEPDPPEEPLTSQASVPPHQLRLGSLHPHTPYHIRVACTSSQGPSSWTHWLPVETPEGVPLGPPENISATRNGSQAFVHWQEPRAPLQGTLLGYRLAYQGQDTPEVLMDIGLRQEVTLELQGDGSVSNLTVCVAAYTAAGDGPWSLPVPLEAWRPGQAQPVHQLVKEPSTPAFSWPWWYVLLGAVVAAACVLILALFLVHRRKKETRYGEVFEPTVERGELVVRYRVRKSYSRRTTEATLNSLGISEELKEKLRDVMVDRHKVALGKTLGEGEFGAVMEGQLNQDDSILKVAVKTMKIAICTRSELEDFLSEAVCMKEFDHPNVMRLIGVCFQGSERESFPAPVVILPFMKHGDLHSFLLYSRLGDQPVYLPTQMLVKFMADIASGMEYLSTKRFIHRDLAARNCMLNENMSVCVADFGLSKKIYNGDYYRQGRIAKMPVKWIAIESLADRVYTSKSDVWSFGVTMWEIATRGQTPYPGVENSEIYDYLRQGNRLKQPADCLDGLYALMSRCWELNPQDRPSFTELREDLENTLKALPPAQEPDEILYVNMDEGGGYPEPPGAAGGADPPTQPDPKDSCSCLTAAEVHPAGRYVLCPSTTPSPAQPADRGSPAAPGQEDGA
The assay is described as follows: Inhibition of purified recombinant AXL kinase. It is filed as biochemical. The source says:
Purified recombinant AXL kinase was used to screen a library of structures with appropriate drug-like scaffolds to identify potential inhibitors. Hits from the screen were confirmed and r analyzed by selection criteria including Lipinski rules. One pyrrolopyrimidine-based compound was selected for structure-activity relationship efforts. Optimization of this scaffold and subsequent evaluation led to the generation of compound SG1-7079 as the lead candidate inhibitor (FIG. 10). […] SGI-7079 was screened against a panel of protein kinases to determine both selectivity and biochemical potency.

The Ki is the equilibrium dissociation constant of an inhibitor or competing ligand from its target. As for `Cc1c[nH]c2nc(Nc3ccc(N4CCN(C)CC4)c(F)c3)nc(-c3cccc(CC#N)c3)c12` [SGI-7079], the “Sensitivity of mesenchymal cells” value in assay [1] (SGI-7079 versus erlotinib, p<0.001 by Wilcoxon test) is listed as “relatively sensitive”. Moreover, the “Fold more sensitive, mesenchymal versus epithelial cells” value in assay [1] (p-value 0.17, not statistically significant) worked out at 1.3 fold. Moreover, the inhibition constant Ki in assay [2] is 5.7 nM.
